“And” between values parts separate entries of the source, which are not always exact repeats. Identical values can stand only once.
Columns and labels:
Olfr2 [1] = test: Olfr2, Rtp1 and Rtp2 mRNA expression (qPCR) in explanted aortas; type: cell-based, mouse
From the text: Next, Olfr2 expression in aortas harvested from western-type diet (WD)-fed male mice (n=5) was investigated^18. Briefly, whole aortas were harvested from Apoe^−/− mice fed western-like diet (WD) for 2 weeks and treated as described above. Relative expression of Olfr2 quantified by real time PCR analysis of Olfr2 expression normalized to expression of Gapdh and untreated control.
In addition, Rtp1 and Rtp2 expression in aortas harvested from Apoe−/− mice was investigated. Briefly, explanted aortas of Apoe−/− mice treated for 12h with Oct (10 μM) and/or lipopolysaccharide (LPS, 500 ng/mL). Rtp1 and Rtp2 expression was assessed by qPCR as described above. N=3 independent experiments (relative expression calculated by 2^−ΔΔCt method). Data are presented as means±SEM. *p<0.05, **p<0.01, ***p<0.005, ****p<0.001. p calculated by One-Way ANOVA test, Tukey's multiple comparisons test.
BMDMs and hMDMs were incubated in culture media for 12 h at 37° C. and 5% CO2 with Oct, (10 μM), LPS (500 ng/mL) alone or combined with Oct (LPS+Oct) and DMSO (0.1%) as a control and lysed with Qiazol (500 μL; Qiagen) Similarly, whole aortas incubated as previously described were transferred into Qiazol (500 μl; Qiagen) and digested with gentleMACS™ Dissociator (Miltenyi).
Total RNA was quantified using a nanodrop spectrophotometer (Peqlab) and 500 ng were reverse transcribed into cDNA using Omniscript reverse transcriptase (Qiagen). Real time PCR reactions were performed according to the RT^2 SYBR green gene expression assay protocol (Qiagen). RT2 SYBR Green qPCR master mix and premade RT^2 qPCR Primer Assays for mouse Olfr2, Rtp1, Rtp2, Ccl2, Ccl4, Tnf, Nos2 and Gapdh were used. Similarly, real time PCR analysis of hMDMs samples was performed following the RT^2 SYBR green gene expression assay protocol (Qiagen), applying RT^2 SYBR Green qPCR master mix and premade RT^2 qPCR Primer Assays for human OR6A2, TNF, IL-6, NOS2 and GAPDH. The results were calculated applying the 2^−ΔΔCT method^32 using Gapdh/GAPDH as housekeeping gene.

Olfr2 [2] = target: T1, Olfr2 (Mus musculus, UniProt Q9QWU6); test: En face atherosclerosis quantification in Apoe−/− mice fed western diet; type: in vivo; parameters: Olfr2 expression was confirmed at the protein level on F4/80^+ vascular macrophages; from tissue; host or cells: explanted whole aortas, digested aortic cell suspensions (F4/80+ vascular macrophages) and blood monocytes of Apoe-/- C57BL/6J mice; living Apoe-/- mice for the in vivo study; conditions: for atherosclerosis in mice: summary of in vivo injection experiments
T1 sequence (Q9QWU6 1-327): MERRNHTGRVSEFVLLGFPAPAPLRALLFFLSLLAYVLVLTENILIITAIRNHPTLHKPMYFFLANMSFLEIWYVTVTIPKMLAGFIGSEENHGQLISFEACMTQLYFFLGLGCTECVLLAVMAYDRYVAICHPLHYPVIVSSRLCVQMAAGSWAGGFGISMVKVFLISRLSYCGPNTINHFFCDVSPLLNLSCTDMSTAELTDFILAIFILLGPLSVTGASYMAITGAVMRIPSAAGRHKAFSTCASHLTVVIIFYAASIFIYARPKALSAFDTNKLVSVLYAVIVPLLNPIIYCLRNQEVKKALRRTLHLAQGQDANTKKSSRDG
Method: The effect of citral on atherosclerosis in Apoe−/− mice fed a high fat western diet, a widely used model of atherosclerosis, was investigated. Briefly, ApoE^−/− Mice (10 weeks old) were fed WD for 4 weeks before the inhibitor treatment, citral, was started. Citral at 10 mg/kg was diluted in 100 uL of PBS and injected I.P. every 3 days for 4 weeks for a total of 12 injections. During this time, mice continue to eat WD for a total of 8 weeks. […] Thus, blocking Olfr2 is anti-atherosclerotic, showing that Olfr2 contributes to atherosclerosis.
To test a possible impact of Olfr2 on atherosclerosis in vivo, male Apoe^−/− mice were fed WD for 8 weeks and injected octanal (10 μg/g) intraperitoneally for the last 4 weeks every three days for a total of 12 injections. […] Octanal had no effect on total cholesterol, LDL cholesterol, HDL cholesterol or triglycerides (FIG. 11A). Similarly, in a loss-of-function experiment, male Apoe^−/− mice were treated with citral (10 μg/g, 12 injections over 4 weeks), which reduced the size of atherosclerotic lesions by ˜40% (FIGS. 10F and G). Citral treatment like octanal had no effect on other parameters (FIG. 11A).
Male Apoe^−/− mice (9 to 10 wks old) were fed WD for 4 weeks. Oct or Cit were diluted in sterile phosphate buffered saline (PBS) (Gibco) at a final concentration of 10 μg/g. 100 μl were injected intraperitoneally (i.p.) every 3 days for 4 weeks (12 injections total) while maintaining WD administration. PBS+0.1% DMSO (Sigma Aldrich) was injected as a vehicle control following the same protocol. Mice were sacrificed, perfused with PBS implemented with 2% heparin (Fresenius Kabi USA, LLC) and aortas removed for en face atherosclerotic lesion assessment. Mouse whole blood (heart puncture) was collected in EDTA tubes. Leukocyte blood counts were determined with HemaVet 950 (Drew Scientific). Plasma was collected from blood centrifuged at 3000 g for 15 min at 4° C. and stored at −80° C. until further analysis.
After explant, each aorta was pinned out after 4% paraformaldehyde incubation at room temperature for at least 2 hours Staining for atherosclerotic plaque was performed by incubating samples in Sudan IV. Microphotographs of the luminal (endothelial) aspect were of the aortic surface were analyzed using Photoshop CS (Adobe Systems). Atherosclerotic lesion size measurement was performed by blinded investigators using Image-Pro Premier software (Media Cybernetics).

| Compound | Olfr2 mRNA expression (Olfr2 [1]; citral, data not shown) | reduction of atherosclerotic lesion size (Olfr2 [2]; Apoe−/− mice on WD 8 weeks, citral 10 μg/g i.p. every 3 days, 12 injections over last 4 weeks) | atherosclerotic lesions, % of the aortic area (Olfr2 [2]; Apoe−/− mice on WD, citral 10 mg/kg i.p., 12 injections, untreated ~8%, P<0.02) | atherosclerosis in mice (Olfr2 [2]) | aortic Olfr2, Rtp1 and Rtp2 mRNA (Olfr2 [1]; LPS 500 ng/mL + octanal 10 μM ex vivo, 12 h) | Olfr2 expression (qRT-PCR) (Olfr2 [1]; LPS + octanal) | Olfr2 expression (qRT-PCR) (Olfr2 [1]; octanal alone) | lesion size, en face staining of aortic arches (Olfr2 [2]; Apoe−/− mice on WD 8 weeks, octanal 10 μg/g i.p., 12 injections over last 4 weeks) |
| --- | --- | --- | --- | --- | --- | --- | --- | --- |
| CC(C)=CCCC(C)=CC=O [citral] | did not affect | ~50% and ~40% | ~5% | protected mice from atherosclerosis | – | – | – | – |
| CCCCCCCC=O [octanal] | – | – | – | exacerbated atherosclerosis | significantly enhanced | further increased | no effect | more than doubled |

Source: patent US20210145768A1, “MODULATING IMMUNE RESPONSE VIA TARGETING OF OLFACTORY RECEPTOR ACTIVITY” (La Jolla Institute for Allergy and Immunology, priority 2018, published 2021)
